Experiment: xn = mol fraction of the nth substance listed

CCCCNCCCC + CC(C)(C)O
viscosity [mPa·s]
Conditions	298.15 K	303.15 K	308.15 K	313.15 K	318.15 K	323.15 K
101 kPa, x2 = 0.1	–	0.8289	0.7649	0.7079	0.658	0.6131
101 kPa, x2 = 0.2	–	0.8953	0.8203	0.7551	0.6972	0.6454
101 kPa, x2 = 0.3	–	0.976	0.8884	0.8111	0.7456	0.6862
101 kPa, x2 = 0.4	–	1.082	0.9747	0.8862	0.8031	0.7331
101 kPa, x2 = 0.4999	–	1.217	1.085	0.9769	0.8802	0.7968
101 kPa, x2 = 0.55	–	1.302	1.153	1.027	0.92	0.829
101 kPa, x2 = 0.6001	–	1.391	1.228	1.087	0.9714	0.8676
101 kPa, x2 = 0.65	–	1.513	1.32	1.16	1.027	0.9126
101 kPa, x2 = 0.7	–	1.647	1.423	1.24	1.089	0.9614
101 kPa, x2 = 0.8001	–	2.011	1.696	1.441	1.245	1.08
101 kPa, x2 = 0.9	–	2.559	2.087	1.71	1.45	1.232
101 kPa, x2 = 0.95	–	2.937	2.352	1.91	1.583	1.333
101.33 kPa, x1 = 0.0672	3.548	–	2.271	–	1.565	–
101.33 kPa, x1 = 0.0989	3.272	–	2.133	–	1.497	–
101.33 kPa, x1 = 0.1393	2.953	–	1.97	–	1.409	–
101.33 kPa, x1 = 0.1939	2.586	–	1.782	–	1.303	–
101.33 kPa, x1 = 0.2674	2.165	–	1.559	–	1.172	–
101.33 kPa, x1 = 0.3319	1.893	–	1.402	–	1.077	–
101.33 kPa, x1 = 0.405	1.643	–	1.25	–	0.984	–
101.33 kPa, x1 = 0.4915	1.419	–	1.109	–	0.895	–
101.33 kPa, x1 = 0.5791	1.248	–	0.999	–	0.816	–
101.33 kPa, x1 = 0.6466	1.143	–	0.93	–	0.769	–
101.33 kPa, x1 = 0.6907	1.086	–	0.89	–	0.745	–
101.33 kPa, x1 = 0.776	0.994	–	0.825	–	0.7	–
101.33 kPa, x1 = 0.8387	0.932	–	0.783	–	0.671	–
101.33 kPa, x1 = 0.8867	0.889	–	0.752	–	0.654	–
101.33 kPa, x1 = 0.9129	0.872	–	0.742	–	0.642	–
101.33 kPa, x1 = 0.9471	0.845	–	0.724	–	0.629	–

COCCO + CCCO
Conditions	viscosity [mPa·s]
298.15 K, 100 kPa, x1 = 0.1005	1.79
298.15 K, 100 kPa, x1 = 0.2016	1.68
298.15 K, 100 kPa, x1 = 0.3013	1.61
298.15 K, 100 kPa, x1 = 0.4012	1.56
298.15 K, 100 kPa, x1 = 0.5013	1.53
298.15 K, 100 kPa, x1 = 0.6005	1.52
298.15 K, 100 kPa, x1 = 0.7008	1.52
298.15 K, 100 kPa, x1 = 0.8003	1.52
298.15 K, 100 kPa, x1 = 0.9001	1.54
298.15 K, 101 kPa, x1 = 0.08067	1.901
298.15 K, 101 kPa, x1 = 0.1649	1.776
298.15 K, 101 kPa, x1 = 0.2529	1.692
298.15 K, 101 kPa, x1 = 0.3449	1.65
298.15 K, 101 kPa, x1 = 0.4413	1.624
298.15 K, 101 kPa, x1 = 0.5423	1.601
298.15 K, 101 kPa, x1 = 0.6482	1.59
298.15 K, 101 kPa, x1 = 0.7596	1.58
298.15 K, 101 kPa, x1 = 0.8767	1.571
298.15 K, 101.33 kPa, x1 = 0.0072	1.938
298.15 K, 101.33 kPa, x1 = 0.0141	1.926
298.15 K, 101.33 kPa, x1 = 0.0297	1.898
298.15 K, 101.33 kPa, x1 = 0.0471	1.867
298.15 K, 101.33 kPa, x1 = 0.062	1.844
308.15 K, 101 kPa, x1 = 0.08067	1.34
308.15 K, 101 kPa, x1 = 0.1014	1.435
308.15 K, 101 kPa, x1 = 0.1502	1.402
308.15 K, 101 kPa, x1 = 0.1649	1.264
308.15 K, 101 kPa, x1 = 0.2508	1.351
308.15 K, 101 kPa, x1 = 0.2529	1.249
308.15 K, 101 kPa, x1 = 0.3049	1.331
308.15 K, 101 kPa, x1 = 0.3449	1.227
308.15 K, 101 kPa, x1 = 0.3667	1.301
308.15 K, 101 kPa, x1 = 0.4257	1.303
308.15 K, 101 kPa, x1 = 0.4413	1.206
308.15 K, 101 kPa, x1 = 0.4838	1.28
308.15 K, 101 kPa, x1 = 0.5161	1.278
308.15 K, 101 kPa, x1 = 0.5378	1.276
308.15 K, 101 kPa, x1 = 0.5423	1.179
308.15 K, 101 kPa, x1 = 0.5647	1.279
308.15 K, 101 kPa, x1 = 0.6129	1.27
308.15 K, 101 kPa, x1 = 0.6482	1.154
308.15 K, 101 kPa, x1 = 0.67	1.252
308.15 K, 101 kPa, x1 = 0.7387	1.25
308.15 K, 101 kPa, x1 = 0.7596	1.131
308.15 K, 101 kPa, x1 = 0.7685	1.251
308.15 K, 101 kPa, x1 = 0.8213	1.251
308.15 K, 101 kPa, x1 = 0.8767	1.125
308.15 K, 101 kPa, x1 = 0.8898	1.253
308.15 K, 101 kPa, x1 = 0.9239	1.253
308.15 K, 101 kPa, x1 = 0.9491	1.26
308.15 K, 101 kPa, x1 = 0.9574	1.264
308.15 K, 101 kPa, x1 = 0.9686	1.277
308.15 K, 101 kPa, x2 = 0.0129	1.288
308.15 K, 101.33 kPa, x1 = 0.117	1.362
308.15 K, 101.33 kPa, x1 = 0.1795	1.319
308.15 K, 101.33 kPa, x1 = 0.3024	1.26
308.15 K, 101.33 kPa, x1 = 0.4526	1.207
308.15 K, 101.33 kPa, x1 = 0.5265	1.192
308.15 K, 101.33 kPa, x1 = 0.6439	1.185
308.15 K, 101.33 kPa, x1 = 0.7915	1.182
308.15 K, 101.33 kPa, x1 = 0.8693	1.174
313.15 K, 100 kPa, x1 = 0.1005	1.3
313.15 K, 100 kPa, x1 = 0.2016	1.23
313.15 K, 100 kPa, x1 = 0.3013	1.19
313.15 K, 100 kPa, x1 = 0.4012	1.16
313.15 K, 100 kPa, x1 = 0.5013	1.15
313.15 K, 100 kPa, x1 = 0.6005	1.14
313.15 K, 100 kPa, x1 = 0.7008	1.14
313.15 K, 100 kPa, x1 = 0.8003	1.15
313.15 K, 100 kPa, x1 = 0.9001	1.16
318.15 K, 101 kPa, x1 = 0.08067	1.099
318.15 K, 101 kPa, x1 = 0.1014	1.168
318.15 K, 101 kPa, x1 = 0.1502	1.142
318.15 K, 101 kPa, x1 = 0.1649	1.058
318.15 K, 101 kPa, x1 = 0.2508	1.089
318.15 K, 101 kPa, x1 = 0.2529	1.003
318.15 K, 101 kPa, x1 = 0.3049	1.079
318.15 K, 101 kPa, x1 = 0.3449	0.9764
318.15 K, 101 kPa, x1 = 0.3667	1.062
318.15 K, 101 kPa, x1 = 0.4257	1.052
318.15 K, 101 kPa, x1 = 0.4413	0.9794
318.15 K, 101 kPa, x1 = 0.4838	1.036
318.15 K, 101 kPa, x1 = 0.5161	1.029
318.15 K, 101 kPa, x1 = 0.5378	1.032
318.15 K, 101 kPa, x1 = 0.5423	0.9701
318.15 K, 101 kPa, x1 = 0.5647	1.028
318.15 K, 101 kPa, x1 = 0.6129	1.021
318.15 K, 101 kPa, x1 = 0.6482	0.9645
318.15 K, 101 kPa, x1 = 0.67	1.017
318.15 K, 101 kPa, x1 = 0.7387	1.018
318.15 K, 101 kPa, x1 = 0.7596	0.9589
318.15 K, 101 kPa, x1 = 0.7685	1.018
318.15 K, 101 kPa, x1 = 0.8213	1.016
318.15 K, 101 kPa, x1 = 0.8767	0.9552
318.15 K, 101 kPa, x1 = 0.8898	1.022
318.15 K, 101 kPa, x1 = 0.9239	1.025
318.15 K, 101 kPa, x1 = 0.9491	1.029
318.15 K, 101 kPa, x1 = 0.9574	1.028
318.15 K, 101 kPa, x1 = 0.9686	1.027
318.15 K, 101 kPa, x2 = 0.0129	1.029

Source: the CheMixHub viscosity set
